Counter-ions that a name gives are not always drawn.

Experiment [1] has as its system alkaline phosphatase (as osteoblastic activity index). To be noted: scalp slices of new-born mouse, tissue culture; starting from the 10 μmolar concentration. Here is the method:
(§1) A study on a tissue culture (scalp slices of new-born mouse prepared according to the method described by A. Togari, Gen. Pharmacol. 24, 1133, 1993) was performed. At the end of the culture period, the tissue added μmolar concentrations of the title product, was homogenised in saline plus 0.1% Triton X-100.
(§2) The obtained homogenate was used to determine alkaline phosphatase (as osteoblastic activity index) and N-acetylglycosaminidase (as osteoclastic activity index).

The subject of experiment [2] is N-acetylglycosaminidase (as osteoclastic activity index). Particulars: scalp slices of new-born mouse, tissue culture; starting from the 10 μmolar concentration. As to the method:
as §1, §2

Take `NCCCC(O)(P(=O)(O)O)P(=O)(O)O` [alendronate trometamine, alendronate trometamine salt]: the “osteoblastic activity (alkaline phosphatase)” value in experiment [1] is listed as “activate in a significant manner the osteoblastic activity”. Also, the “osteoclastic activity (N-acetylglycosaminidase)” value in experiment [2] was “inhibit the osteoclastic activity”.

Values taken from patent US6410782B1, “Diphosphonic acid salts for the treatment of osteoporosis” (Geange Ltd., priority 1997, dated 2002).
